Data: publication PMC10817170, “Effect of an NHE3 inhibitor in combination with an NPT2b inhibitor on gastrointestinal phosphate absorption in Rodent models” (PLOS ONE, 2024)
Where “and” joins values, the source holds several entries; their conditions need not be identical. Equal values may be shown once.

Legend:
[1] = test system: acute phosphate uptake into plasma; set-up: method as in PMID 35194979; conditions: mice; cited from earlier work
[2] = test system: acute phosphate uptake into plasma; assay: Acute phosphate uptake in rats, LY3304000 with fixed 1.2 mg/kg LY3358966; type: in vivo; conditions: 1.2 mg/kg LY3358966 alone
Protocol: NHE3 inhibitor LY3304000 and NPT2b inhibitor LY3358966 SDD were used in combination to assess their effect on phosphate absorption in rats. To make the LY3358966 dosing solution, an appropriate amount of LY3358966 SDD was weighed for a 1.2 mg/kg API dosing solution with 10 mL/kg dosing volume and dissolved in water. To make the LY3304000 dosing solution, an appropriate amount of LY3304000 was weighed for a 10 mg/kg dose with 10 mL/kg dosing volume and dissolved in 1% HEC vehicle. The subsequent dosing solutions for 3, 1, 0.3, 0.1, 0.03, 0.01, 0.003, and 0.001 mg/kg LY3304000 were prepared by serial dilutions with 1% HEC. Following 12-hour fasting, male SD rats were orally dosed at 10 mL/kg with 1% HEC vehicle, 1.2 mg/kg LY3358966 or increasing doses of LY3304000 with a fixed, 1.2 mg/kg dose of LY3358966. In the vehicle group, the animals were dosed first with 1% HEC immediately followed by water. In the LY3358966 alone group, the animals were first dosed with 1% HEC immediately followed by LY3358966. In the combination groups, the animals were dosed first with LY3304000 immediately followed by LY3358966. Fifteen minutes later, 2 mL Radiolabeled Phosphate Dosing Solution was orally dosed. Fifteen minutes later, blood was collected by cardiac stick, and plasma was prepared. Radioactivity (dpm) in 50-μL plasma was measured by scintillation counting. To measure the total radioactivity dosed to each rat, the radioactivity in two 10-μL samples of the Radiolabeled Phosphate Dosing Solutions was measured by scintillation counting. The mole amount of phosphate uptake was calculated as described above to determine acute phosphate uptake.

[3] = test system: acute phosphate uptake into plasma; set-up: method as in PMID 35194979; conditions: rats; cited from earlier work
[4] = test system: intestinal phosphate absorption; assay: Phosphate absorption in rats: 33P in plasma (15 min) and recovered in gastrointestinal tract (4 h), single agents and combination; type: in vivo; conditions: 0.4 mg/kg LY3304000, 10 mg/kg LY3358966 or both
Protocol: We also evaluated the effect of LY3304000 and LY3358966 in combination on phosphate absorption in rats by measuring radioactive phosphate recovered in either plasma or the gastrointestinal (GI) tract. In this combination study, two vehicles were used. One is 1% HEC vehicle for making LY3304000 dosing solution, another is 0.46% PVP-VA vehicle contained in LY3358966 SDD. To make the LY3358966 dosing solution, an appropriate amount of LY3358966-SDD was weighed for a 10 mg/kg API dosing solution with 5 mL/kg dosing volume and dissolved in water. To make the LY3304000 dosing solution, an appropriate amount of LY3304000 was weighed for a 0.4 mg/kg dosing solution with 5 mL/kg dosing volume and dissolved in 1% HEC. The Radiolabeled Phosphate Dosing Solutions was made as described above. Following 4-hour fasting with access to water, male SD rats were orally dosed at 10 mL/kg with either two vehicles, an LY3358966 dosing solution and 1% HEC vehicle, an LY3304000 dosing solution and 0.46% PVP-VA vehicle, or an LY3304000 and LY3358966 dosing solutions, combined 1:1 by volume. Fifteen minutes later, Radiolabeled Phosphate Dosing Solution was orally dosed in a 2 mL volume. Fifteen minutes after the radiolabeled phosphate dose, blood was collected by retro orbital bleeding, and plasma was prepared. Radioactivity (dpm) in 20-μL plasma was measured by scintillation counting. The mole amount of phosphate uptake in the plasma was calculated as described above. Four hours post radioactive phosphate dose, the animals were sacrificed by asphyxiation with CO2 followed by cervical dislocation and then the stomach, small intestine, large intestine, and feces were collected and weighed. The tissues and feces were digested in 20 mL or 10 mL of 1 N NaOH, respectively, overnight at 37°C. A 100 μL sample of the homogenates were dispensed into scintillation vials and mixed with 10 mL of Optiphase Supermax scintillation fluid (PerkinElmer), and radioactivity (dpm) was measured by scintillation counting. Very little radioactivity was detected in the feces at 4 hours post radioactive phosphate dose. The percentage of radiolabeled phosphate recovered in the gastrointestinal tissue was defined as radioactivity (dpm) recovered in each fraction compared to the amount of radioactivity (dpm) administered. The mole amount of phosphate uptake into plasma in vehicle and LY3358966 and LY3304000 alone groups were compared to the LY3358966 and LY3304000 combination group using One-way ANOVA with Dunnett’s multiple comparisons. Percent recovery of ^33P phosphate in the rat gastrointestinal tract was analyzed by two-way analysis of variance (ANOVA) in JMP 12.1 to test for additivity of the effects of LY3304000 and LY3358966 on inhibiting phosphate absorption.

[5] = test system: phosphate absorption; set-up: method as in PMID 30158152; conditions: cited from earlier work
[6] = test system: acute phosphate uptake into plasma; set-up: method as in PMID 34978760; conditions: cited from earlier work

Structure (SMILES) | decrease of acute uptake of radiolabeled phosphate into plasma [1] | phosphate uptake, % of the vehicle control [2] [%] | phosphate uptake into plasma ([2]; vehicle 710 nmoles) [nmol] | inhibition of acute phosphate uptake [3] | phosphate uptake into plasma ([4]; 15 min post 33P phosphate, vehicle 166, mean ± SEM, n=8) [nmol] | inhibition of phosphate uptake into plasma ([4]; 15 min post 33P phosphate, versus vehicle) [%] | percentage of radiolabeled phosphate recovered, Feces ([4]; 4 h) [%] | percentage of radiolabeled phosphate recovered, Large Intestine ([4]; 4 h) | percentage of radiolabeled phosphate recovered, Small Intestine ([4]; 4 h) | percentage of radiolabeled phosphate recovered, Stomach ([4]; 4 h) | percentage of 33P recovered in GI tract, total ([4]; 4 h post 33P phosphate, stomach, small intestine, large intestine and feces, vehicle 25%) | effect on phosphate absorption [5] | effect on plasma 33P-phosphate in NHE3 knockout mice ([6]; 60 minutes after dosing 33P-phosphate) | 33P-phosphate levels in plasma, lower than vehicle ([6]; mice, 5 minutes post phosphate dose) | 33P-phosphate levels in plasma, elevated versus vehicle ([6]; mice, 60 min post phosphate dose)
CC1(C)CN(C(=O)NCCCCO)CCN1Cc1cccc(C(=O)Nc2sc3c(c2C(=O)Nc2cc(F)c(CCc4ccc(C(=O)O)cc4)c(F)c2)CCCC3)c1 [LY3358966] | over 70% | 71 | 504 | 20–30% | 108 | 35 | <0.1 | 18.43 +/- 2.03% | 8.98 +/- 0.48% | 4.86 +/- 1.13% | 32 ± 1% and 32% and 32.27 +/- 1.38% |  |  |  | 
CN1Cc2c(Cl)cc(Cl)cc2[C@H](c2cccc(S(=O)(=O)NCCOCCOCCNC(=O)NCCCCNC(=O)NCCOCCOCCNS(=O)(=O)c3cccc([C@@H]4CN(C)Cc5c(Cl)cc(Cl)cc54)c3)c2)C1 [tenapanor] |  |  |  |  |  |  |  |  |  |  |  | little effect | no effect | about 67% | about 50%
